Experiments:
Ercc1^−/− MEFs = test: Reversal of senescence (SA-β-gal+) of Ercc1−/− MEFs; assay type: cell-based, mouse; conditions: within 24 hours of treatment
Method: FIG. 19 depicts analysis of the ability of an IKK inhibitor (IKKiVII) to rescue senescence (SA-β-gal+) […] MEFs after 24 hours of treatment.
To determine whether NF-κB is activated by endogenous genotoxic stress, which arises as a consequence of normal metabolism, Ercc1^−/− primary cells and mice were used, which are defective in DNA repair were used. Phosphorylated p65 (p-p65) and IκB were measured in nuclear and cytoplasmic extracts from early passage, congenic Ercc1^−/− and WT primary MEFs by immunoblot, and there was a >2-fold increase in nuclear p-p65 in Ercc1^−/− MEFs compared to WT, which correlated with an increase in the level of phosphorylated IκB (p-IκB) in the cytoplasm. EMSA was used to confirm increased NF-κB binding in nuclear extracts of Ercc1^−/− MEFs, which was abrogated by pretreatment of the samples with an anti-p65 antibody. To determine whether premature senescence of Ercc1^−/− MEFs is NF-κB dependent, the growth of Ercc1^−/−; p65^−/− MEFs was compared to congenic Ercc1−/− MEFs. Ercc1^−/− MEFs have reduced proliferation and increased replicative senescence as measured by SA-β-Gal staining, γ-H2AX foci and p16 expression. […] Furthermore, the Ercc1^−/−; p65^−/− MEFs had reduced ROS compared to Ercc1 cells as determined by staining mitochondria with DiOC6 and superoxide anion with MitoSOX. […]

aged WT MDSPCs = test: Myogenic potential (fusion index) of aged MDSPCs under IKK-β inhibition; assay type: cell-based, mouse; set-up: dose or concentration left out as unconfirmed; conditions: fusion conditions
Text: Reduction of NF-κB enhances the myogenic differentiation potential and resistance to stress in MDSPCs isolated from naturally aged mice. To determine further whether the NF-κB signaling pathway plays a role in driving age-related stem cell dysfunction, whether pharmacologic inhibition of IKK-β would restore the myogenic potential of aged WT MDSPCs was examined. […] MDSPCs were isolated from 30 month old p65^+/− and 24 month old WT mice and compared the myogenic potential of 30 month old p65^+/− MDSPCs in vitro to naturally aged WT MDSPCs. The results confirmed that MDSPCs from p65^+/− aged mice (30 month) were more myogenic than MDSPCs from 24 month old WT mice.

Ercc1^−/Δ mice = test: Chronic XJB-5-131 treatment of Ercc1−/Δ mice; assay type: in vivo, mouse

SMILES: O=C(c1ccc(Nc2nccc(-c3cc4ccccc4s3)n2)cc1)N1CCC(N2CCCC2)CC1 [IKKiVII]
- senescence of Ercc1^−/− MEFs (>60% of cells SA-βgal+) (Ercc1^−/− MEFs): could be reversed

SMILES: NC(=O)Nc1sc(-c2ccc(F)cc2)cc1C(N)=O [IKKβ inhibitor IV]
- fusion index of aged MDSPCs (aged WT MDSPCs): significantly increased

SMILES: CC(C)C[C@@H](/C=C/[C@H](Cc1ccccc1)C(=O)N1CCC[C@H]1C(=O)N[C@H](C(=O)N[C@@H](CCCNC(=O)OCc1ccccc1)C(=O)NC1CC(C)(C)N([O])C(C)(C)C1)C(C)C)NC(=O)OC(C)(C)C [XJB-5-131]
- onset of aging-related degenerative changes (Ercc1^−/Δ mice): delay the onset

From patent publication US20140010801A1, “Compositions and Methods for Restoring or Rejuvenating Stem/Progenitor Cell Function” (UNIVERSITY OF PITTSBURGH - OF THE COMMONWEALTH SYSTEM OF …, priority 2012, published 2014)
